Values of other authors in PubChem BioAssay AID1259409 (Chemical Carcinogenesis Research Information System (CCRIS), 2018).

Test system: rodent chemically induced tumor inhibition, incidence and multiplicity
Assay: CCRIS tumor inhibitor studies
Details: Carcinogen: L-AZASERINE, 115-02-6, Route [Inhibitor]: ORAL, Species: RAT, Dose [Carcinogen]: 10 MG/KG BW 1/WK FOR 15 WK, Promoter: NONE USED

**Q.** For `CCC(=O)Oc1ccc(NC(=O)\C=C(C)/C=C/C=C(C)/C=C/C2=C(C)CCCC2(C)C)cc1`, which “tumour outcome (control, treated, inhibition, significance)” value (Dose [Inhibitor]: 1 MMOL/KG DIET DAILY FOR 84 D FOLLOWED BY 0.5 MMOL/KG DIET FOR 276 D STARTING 1 WK AFTER COMPLETION OF CARCINOGEN TREATM, Strain/Sex: WISTAR-LEWIS/FEMALE, Target Tissue: Type of Lesion: PANCREAS: ADENOMA) is on record?
**A.** 50%, 17%, 66%, not significant

**Q.** And the “tumour outcome (control, treated, inhibition, significance)” value (Dose [Inhibitor]: 1 MMOL/KG DIET DAILY FOR 84 D FOLLOWED BY 0.5 MMOL/KG DIET FOR 276 D STARTING 1 WK AFTER COMPLETION OF CARCINOGEN TREATM, Strain/Sex: WISTAR-LEWIS/FEMALE, Target Tissue: Type of Lesion: PANCREAS: CARCINOMA IN SITU)?
**A.** 8%, 21%, -163%, not calculated

**Q.** And the “tumour outcome (control, treated, inhibition, significance)” value (Dose [Inhibitor]: 1 MMOL/KG DIET DAILY FOR 84 D FOLLOWED BY 0.5 MMOL/KG DIET FOR 276 D STARTING 1 WK AFTER COMPLETION OF CARCINOGEN TREATM, Strain/Sex: WISTAR-LEWIS/FEMALE, Target Tissue: Type of Lesion: PANCREAS: CARCINOMA)?
**A.** 13%, 0%, 100%, not significant

**Q.** And the “tumour outcome (control, treated, inhibition, significance)” value (Dose [Inhibitor]: 1 MMOL/KG DIET DAILY FOR 84 D FOLLOWED BY 0.5 MMOL/KG DIET FOR 276 D STARTING 1 WK AFTER COMPLETION OF CARCINOGEN TREATM, Strain/Sex: WISTAR-LEWIS/FEMALE, Target Tissue: Type of Lesion: PANCREAS: NEOPLASM)?
**A.** 71%, 38%, 46%, p<0.05

**Q.** What about the “tumour outcome (control, treated, inhibition, significance)” value (Dose [Inhibitor]: 1 MMOL/KG DIET DAILY FOR 84 D FOLLOWED BY 0.5 MMOL/KG DIET FOR 276 D STARTING 1 WK AFTER COMPLETION OF CARCINOGEN TREATM, Strain/Sex: WISTAR-LEWIS/MALE, Target Tissue: Type of Lesion: PANCREAS: ADENOMA) of the same compound?
**A.** 25%, 29%, -16%, not significant

**Q.** And the “tumour outcome (control, treated, inhibition, significance)” value (Dose [Inhibitor]: 1 MMOL/KG DIET DAILY FOR 84 D FOLLOWED BY 0.5 MMOL/KG DIET FOR 276 D STARTING 1 WK AFTER COMPLETION OF CARCINOGEN TREATM, Strain/Sex: WISTAR-LEWIS/MALE, Target Tissue: Type of Lesion: PANCREAS: CARCINOMA IN SITU)?
**A.** 29%, 42%, -45%, not significant

**Q.** And the “tumour outcome (control, treated, inhibition, significance)” value (Dose [Inhibitor]: 1 MMOL/KG DIET DAILY FOR 84 D FOLLOWED BY 0.5 MMOL/KG DIET FOR 276 D STARTING 1 WK AFTER COMPLETION OF CARCINOGEN TREATM, Strain/Sex: WISTAR-LEWIS/MALE, Target Tissue: Type of Lesion: PANCREAS: CARCINOMA)?
**A.** 46%, 21%, 54%, p 0.06

**Q.** What about the “tumour outcome (control, treated, inhibition, significance)” value (Dose [Inhibitor]: 1 MMOL/KG DIET DAILY FOR 84 D FOLLOWED BY 0.5 MMOL/KG DIET FOR 276 D STARTING 1 WK AFTER COMPLETION OF CARCINOGEN TREATM, Strain/Sex: WISTAR-LEWIS/MALE, Target Tissue: Type of Lesion: PANCREAS: NEOPLASM) of the same compound?
**A.** 100%, 92%, 8%, not significant

**Q.** And the “tumour outcome (control, treated, inhibition, significance)” value (Dose [Inhibitor]: 2 MMOL/KG DIET FOR 44 D, 1.5 MMOL FOR 26 D, 1 MMOL FOR 56 D AND 0.75 MMOL FOR 192 D STARTING 1 WK AFTER COMPLETION OF CA, Strain/Sex: WISTAR-LEWIS/FEMALE, Target Tissue: Type of Lesion: PANCREAS: ADENOMA)?
**A.** 50%, 29%, 42%, not significant

**Q.** And the “tumour outcome (control, treated, inhibition, significance)” value (Dose [Inhibitor]: 2 MMOL/KG DIET FOR 44 D, 1.5 MMOL FOR 26 D, 1 MMOL FOR 56 D AND 0.75 MMOL FOR 192 D STARTING 1 WK AFTER COMPLETION OF CA, Strain/Sex: WISTAR-LEWIS/FEMALE, Target Tissue: Type of Lesion: PANCREAS: CARCINOMA IN SITU)?
**A.** 8%, 4%, 50%, not significant

**Q.** And the “tumour outcome (control, treated, inhibition, significance)” value (Dose [Inhibitor]: 2 MMOL/KG DIET FOR 44 D, 1.5 MMOL FOR 26 D, 1 MMOL FOR 56 D AND 0.75 MMOL FOR 192 D STARTING 1 WK AFTER COMPLETION OF CA, Strain/Sex: WISTAR-LEWIS/FEMALE, Target Tissue: Type of Lesion: PANCREAS: CARCINOMA)?
**A.** 13%, 4%, 70%, not significant

**Q.** And the “tumour outcome (control, treated, inhibition, significance)” value (Dose [Inhibitor]: 2 MMOL/KG DIET FOR 44 D, 1.5 MMOL FOR 26 D, 1 MMOL FOR 56 D AND 0.75 MMOL FOR 192 D STARTING 1 WK AFTER COMPLETION OF CA, Strain/Sex: WISTAR-LEWIS/FEMALE, Target Tissue: Type of Lesion: PANCREAS: NEOPLASM)?
**A.** 71%, 38%, 46%, p<0.05

**Q.** And the “tumour outcome (control, treated, inhibition, significance)” value (Dose [Inhibitor]: 2 MMOL/KG DIET FOR 44 D, 1.5 MMOL FOR 26 D, 1 MMOL FOR 56 D AND 0.75 MMOL FOR 192 D STARTING 1 WK AFTER COMPLETION OF CA, Strain/Sex: WISTAR-LEWIS/MALE, Target Tissue: Type of Lesion: PANCREAS: ADENOMA)?
**A.** 25%, 22%, 12%, not significant

**Q.** And the “tumour outcome (control, treated, inhibition, significance)” value (Dose [Inhibitor]: 2 MMOL/KG DIET FOR 44 D, 1.5 MMOL FOR 26 D, 1 MMOL FOR 56 D AND 0.75 MMOL FOR 192 D STARTING 1 WK AFTER COMPLETION OF CA, Strain/Sex: WISTAR-LEWIS/MALE, Target Tissue: Type of Lesion: PANCREAS: CARCINOMA IN SITU)?
**A.** 29%, 43%, -48%, not significant

**Q.** And the “tumour outcome (control, treated, inhibition, significance)” value (Dose [Inhibitor]: 2 MMOL/KG DIET FOR 44 D, 1.5 MMOL FOR 26 D, 1 MMOL FOR 56 D AND 0.75 MMOL FOR 192 D STARTING 1 WK AFTER COMPLETION OF CA, Strain/Sex: WISTAR-LEWIS/MALE, Target Tissue: Type of Lesion: PANCREAS: CARCINOMA)?
**A.** 46%, 13%, 72%, p<0.05

**Q.** And the “tumour outcome (control, treated, inhibition, significance)” value (Dose [Inhibitor]: 2 MMOL/KG DIET FOR 44 D, 1.5 MMOL FOR 26 D, 1 MMOL FOR 56 D AND 0.75 MMOL FOR 192 D STARTING 1 WK AFTER COMPLETION OF CA, Strain/Sex: WISTAR-LEWIS/MALE, Target Tissue: Type of Lesion: PANCREAS: NEOPLASM)?
**A.** 100%, 78%, 22%, not significant
